One test addresses HCK^Y527F (Homo sapiens, UniProt P08631, Y522F). The test is described as follows: Pull-down assay to determine SH3 domain accessibility. Format: binding. The settings on record: inhibitor 5 µM (saturating), kinase 100 nM; mean ± SEM, n=3.
Test [1] has as its target SNAP-tag-polyproline (PP) peptide fusion (…). The test is described as follows: pull-down.

The results in this text go back to PMC3522794 (Nature chemical biology, 2012).

Regarding `Cc1nc(Nc2ncc(C(=O)Nc3c(C)cccc3Cl)s2)cc(N2CCN(CCO)CC2)n1` [Dasatinib, dasatinib], the “Percent kinase eluted (retained on PP ligand beads), HCK^Y527F” value on HCK^Y527F worked out at 27%.
Regarding “HCK^Y527F (HCK residues 84–531, Y527F, SRC residue numbering) (enzyme)”, the percent of loaded kinase retained on the beads in test [1] worked out at 27%.
